# Test results from ChEMBL document CHEMBL1141619, “Discovery of novel inhibitors of 11beta-hydroxysteroid dehydrogenase type 1 by docking and pharmacophore modeling” (Bioorg Med Chem Lett, 2008).
# How the values were obtained:
# [1] = target: T1, 11-beta-hydroxysteroid dehydrogenase type 2 (Mus musculus) (UniProt P51661); experiment: Inhibition of mouse 11beta-HSD2 at 10 uM
# T1 sequence (whole entry): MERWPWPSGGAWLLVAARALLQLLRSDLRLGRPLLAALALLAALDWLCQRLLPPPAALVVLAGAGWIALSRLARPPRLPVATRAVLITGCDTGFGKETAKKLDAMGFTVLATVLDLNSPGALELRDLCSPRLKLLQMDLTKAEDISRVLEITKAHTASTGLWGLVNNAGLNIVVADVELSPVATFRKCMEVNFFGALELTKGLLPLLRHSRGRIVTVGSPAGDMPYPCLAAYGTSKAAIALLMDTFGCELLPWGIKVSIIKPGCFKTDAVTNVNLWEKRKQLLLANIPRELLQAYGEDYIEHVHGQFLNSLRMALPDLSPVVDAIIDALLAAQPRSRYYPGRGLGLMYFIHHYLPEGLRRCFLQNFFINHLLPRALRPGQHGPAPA
# [2] = target: 11-beta-hydroxysteroid dehydrogenase 1 (Mus musculus, UniProt P50172); experiment: Inhibition of mouse 11beta-HSD1
# 11-beta-hydroxysteroid dehydrogenase 1, sequence (P50172 whole entry): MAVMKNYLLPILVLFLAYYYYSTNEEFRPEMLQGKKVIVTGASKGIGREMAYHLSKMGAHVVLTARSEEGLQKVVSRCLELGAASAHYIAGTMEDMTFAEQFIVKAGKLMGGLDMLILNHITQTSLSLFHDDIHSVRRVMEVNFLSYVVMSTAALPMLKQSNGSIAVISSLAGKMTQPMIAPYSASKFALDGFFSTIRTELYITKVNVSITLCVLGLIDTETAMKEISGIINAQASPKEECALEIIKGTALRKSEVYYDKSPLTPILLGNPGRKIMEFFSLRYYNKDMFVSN
# [3] = target: 11-beta-hydroxysteroid dehydrogenase 1 (Mus musculus) (UniProt P50172); experiment: Inhibition of mouse 11beta-HSD1 at 10 uM
# 11-beta-hydroxysteroid dehydrogenase 1 (Mus musculus), sequence (P50172 whole entry, looked up): as the sequence (P50172 whole entry) above
Structure (SMILES),inhibition [1] [%],IC50 [2] [µM],inhibition [3] [%]
Cc1ccc(S(=O)(=O)N(CC(=O)N2CCCCCC2)c2cc(Cl)ccc2C)cc1,0.8,6.1,–
Cc1cc(NS(=O)(=O)c2ccc(NC(=O)c3ccc(C(=O)C(=O)c4ccccc4)cc3)cc2)nc(C)n1,9.1,0.48,–
O=C(CN1C(=O)C2C3c4ccccc4C(c4ccccc43)C2C1=O)Nc1cccc(Cl)c1 (configuration not stated),2.2,12.5,–

# Next, values leading:
inhibition [1] [%],IC50 [2] [µM],inhibition [3] [%],Structure (SMILES)
3.7,3.6,–,CC(C)COC(=O)c1ccc(NC(=O)c2ccc3c(c2)-c2ccccc2C3=O)cc1
3.4,–,60,Cc1ccc(C(=O)COC(=O)C(Cc2ccccc2)N2C(=O)c3ccccc3C2=O)cc1 (configuration not stated)
0,2.09,–,O=C(CSc1nc2ccc(NC(=O)c3ccccc3Br)cc2s1)NCCc1ccccc1
